Row | melting point | Compound
1 | 253 °C | Cc1cc(NC(=O)C2=C(O)c3ccc4ccccc4c3S(=O)(=O)N2C)no1
2 | 74 to 75 °C | Cc1nc(N)ccc1Cl
3 | 148 °C | O=C(Nc1ccccc1)O[C@@H]1CN=C(c2ccc([N+](=O)[O-])cc2)O[C@H]1c1ccccc1 (racemic)
4 | 152 to 154 °C | CC(COc1ccc(O)c(C(N)=O)c1)NCC(O)c1ccccc1 (stereo unspecified)
5 | 203 to 205 °C | COc1ccc(CC(=O)NC(NC(=NC#N)c2cccc3ncccc23)C(C)(C)C)cc1OC (stereo unspecified)
6 | 179 to 182 °C | O=c1cc(-c2ccccc2)c2c(O)cc(O)cc2o1
7 | 230 to 232 °C | O=C(Nc1cccc(-c2c(-c3ccccc3C(F)(F)F)cnc3c(C(F)(F)F)cccc23)c1)Nc1ccccc1Cl
8 | 207 to 209 °C | CN(c1ccoc1)c1n[nH]c2ncnc(Nc3cccc(Cl)c3)c12
9 | 133 to 140 °C | CCCCc1nc2c(N)nc3ccccc3c2n1CCOCC#Cc1ccccc1
10 | 104 to 105 °C | O=c1c2ccccc2cnn1Cc1ccccc1
11 | 107 to 108 °C | Cc1c(C)c2c(c(C)c1Br)C(c1ccccc1)CO2 (stereo unspecified)
12 | 238 to 240 °C | CCN1c2ncccc2C(=O)Nc2c(C)cc(N3CCC[C@H]3CO)nc21
13 | 189 °C | CCOC(=O)NC1=NN(c2cccc(Cl)c2)C(=O)C1
14 | 107 to 109 °C | CC(=O)N1CCC(=O)C(C2c3ccccc3CCc3ccccc32)C1 (stereo unspecified)
15 | 150 to 152 °C | CC(C)Sc1c(C(N)=O)sc2ccc(OCc3ccccc3)cc12
16 | 95 to 96 °C | COc1cccc(CN2C(=NCCCn3ccnc3)c3cccc4cccc2c34)c1
17 | 157 to 158 °C | CC(C)CN1N(C)Nc2c3ncnc-3c3ccncc3n21
18 | 167 to 168 °C | CCn1ncc2c1ncc1c(=O)n3nccc3n(CCC(C)C)c12

Row | melting point | Compound
19 | 247 to 249 °C | NC(=O)c1cnn2c(-c3cccc(F)c3)ccnc12
20 | 71 °C | CCCC(=O)C1=C(O)CC(c2ccc3occc3c2)CC1=O (stereo unspecified)
21 | 112 to 116 °C | Cc1cc2ccncc2c(=O)c2ccccc12
22 | 120 °C | CC(Cl)(Cl)c1nc2c(C(F)(F)F)cccc2c(=O)o1
23 | 175 to 176 °C | O=Cc1cnc(-c2ccc(C(CC3CCOCC3)c3ccc(S(=O)(=O)C4CC4)cc3)[nH]2)s1 (stereo unspecified)
24 | 183 °C | COc1ccc(C(=O)Nc2ccc3ccc(Oc4ccccc4Br)nc3n2)cc1
25 | 253 to 254 °C | Cn1c2ccc(Cl)cc2c2c(CBr)nn(-c3ccccc3)c(=O)c21
26 | 86.7 °C | ClC(Cl)=CCOc1cc(Cl)c(OCc2ccc3ccccc3c2)c(Cl)c1
27 | 158 to 160 °C | CCCc1nc2c(N)nc3cc(OCCn4cccc4)ccc3c2s1
28 | 115 to 120 °C | COc1ccc(CNc2nc(OCc3ccccn3)ncc2C(=O)OCc2ccccn2)cc1Cl
29 | 124 to 125 °C | NCCNc1ccc2ccccc2n1
30 | 199 to 200 °C | O=C1NC(=O)C(Nc2ccc(Br)c3ccccc23)S1 (stereo unspecified)
31 | 188 to 189 °C | COc1ccc2nc(-c3cccc(C)c3)c(-c3ccnc(NC4CCCCC4)c3)n2n1
32 | 162 to 163 °C | CCN1C(=O)C(C(=O)c2ccco2)c2cc(Cl)cnc21 (stereo unspecified)
33 | 125 to 127 °C | CC(C)(C)OC(=O)c1ccccc1-c1ccc(CNC(=O)C2(N)CCOCC2)cc1
34 | 158 °C | CCOC(=O)c1cccn1CCN1CCC(=C2c3ccccc3CCn3ccnc32)CC1
35 | > 300 °C | Cc1cc(C(=O)Nc2ccc(C(N)=O)cc2)on1
36 | 98 to 99 °C | O=C(Nc1ccccc1)OCCc1ccc2c(c1)C(=O)c1ccccc1CO2

More lines, now with the values behind:

Row | Compound | melting point
37 | CCC1(c2c[nH]cn2)Cc2ccc(N)cc2C1 (stereo unspecified) | 145 to 152 °C
38 | CC(C)Cc1ccc(CCc2cc3c(s2)NC(=S)CN=C3c2ccccc2Cl)cc1 | 180 to 182 °C
39 | COC1CC(N)C(O)C(C)O1 (stereo unspecified) | 130 °C
40 | COC(=O)[C@@H]1C[C@@H](OS(C)(=O)=O)CN1C(=O)C1(C(F)(F)F)CC1 | 123 to 124 °C
41 | O=C(O)CN1C(=O)C(=Cc2ccncc2)SC1=S | 263 to 266 °C
42 | CCOC(=O)c1c[nH]c(Br)c1-c1ccc(Cl)cc1 | 161 to 164 °C
43 | CC1(C)CN(Cc2cc(F)ccc2F)c2cc(-c3ccc(C(=O)N4CCC[C@H]4CN4CCCC4)cc3)cnc2N1 | 74 to 77 °C
44 | COC(=O)C=Cc1ccc(C(=O)O)s1 | 156 °C
45 | CSc1sc(-c2ncn(C)n2)c2c1C(=O)CC(C)(C)C2 | 146 to 148 °C
46 | CC(C)(C)OC(=O)Nc1cc(N2CCC3(CC2)OCCO3)c(I)cc1[N+](=O)[O-] | 132 to 134 °C
47 | CSc1cc(C(C)=O)ccc1OCCCN1CCC(c2noc3cc(F)ccc23)CC1 | 150 to 152 °C
48 | CC1Nc2ccc(-c3ccc(C#N)s3)cc2C(C)(C)O1 (stereo unspecified) | 172 to 173 °C
49 | Cc1ccc(C=CC(=O)NNC(=O)C=Cc2ccc(C)cc2)cc1 | 307 °C
50 | CCOc1cc2ncc(C#N)c(Nc3ccc4c(c3)CCC4)c2cc1OCC | 85 to 88 °C
51 | CC1C(=O)Oc2cc(N3CCOCC3)c(Cl)cc21 (stereo unspecified) | 103 to 105 °C
52 | CC(=O)O[C@H]1CC[C@H](CCCCCC(=O)O)CC1 | 82 to 86 °C
53 | O=C1NC(C(=O)N2CC(O)CC2C(=O)O)CSCCCCCCCC1CS (stereo unspecified) | 124 to 130 °C
54 | COc1ccc(C2CCC(=O)CC2NC(=O)c2ccc(OCC3CC3)c(OCC3CC3)c2)cc1OC (stereo unspecified) | 150 to 152 °C

Row | Compound | melting point
55 | Cc1c(C2=CCC(c3ccccc3)(N(C)C)CC2)[nH]c2ccc(F)cc12 (stereo unspecified) | 171 to 175 °C
56 | COc1ccccc1NC(=O)Nc1ccc(C2CCN(C(=O)Nc3ccc(OCC(O)CO)cc3Cl)CC2)cc1 (stereo unspecified) | 158 to 161 °C
57 | COc1ccc(OC)c2c(Nc3ccc(Cl)cc3F)c(C#N)cnc12 | 197 to 199 °C
58 | O=C1N[C@H](C(=O)NCCO[N+](=O)[O-])[C@@H](c2ccccc2)O1 | 122 to 124 °C
59 | CC(=O)NC(C)(C)c1ccc(C(C)N2CCN(c3ccc(F)cc3)CC2)cc1 (stereo unspecified) | 156 to 157 °C
60 | CC1(C(=O)C(=Cc2ccc(Cl)cc2Cl)n2cncn2)COCOC1 | 133 to 135 °C
61 | COC(=O)[C@H]1CC[C@H](n2cnn(-c3ccc(C4CCN(C(=O)C(F)(F)F)CC4)cc3)c2=O)CC1 | 184 to 186 °C
62 | CN(Cc1ccc(Cl)cc1)C(=O)CC12CC3CC(CC(C3)C1)C2 | 75 to 76 °C
63 | CCn1c(=O)c(-c2cc(OC)cc(OC)c2)cc2cnc(SC)nc21 | 120 to 122 °C
64 | CC(CCC(=O)NC(C)(C)CO)C1CCC2C3C(=O)CC4CC(O)CCC4(C)C3CC(O)C12C (stereo unspecified) | 229 to 231 °C
65 | CCOC(=O)c1sc2ccc(OC)cc2c1OCC | 42 to 43 °C
66 | COC(=O)C1CCCn2c(=O)n(CSC(C)=O)c(=O)n21 (stereo unspecified) | 100 to 102 °C
67 | CCCCCCCCCCCCCCCCN(CC(O)CO)C(=O)CCCCC (stereo unspecified) | 38.8 °C
68 | CCOC(=O)NC=Cc1ccc(OCC(O)CNC(C)(C)C)cc1 (stereo unspecified) | 99 to 100 °C
69 | Cc1ccc(S(=O)(=O)NCC(=O)NCc2ccc(C(c3cc(F)ccc3F)S(=O)(=O)c3ccc(Cl)cc3)nc2)cc1 (stereo unspecified) | 217 to 218 °C
70 | COc1cc(C(=O)CCC(=O)c2cc(OCc3ccccc3)c(O)c(S(=O)(=O)CCO)c2)cc(OC)c1OC | 129 to 130 °C
71 | CCOC(=O)c1ccc(NC(=O)C(c2ccc(Cl)cc2)c2ccc(Cl)cc2)cc1 | 171 to 172 °C

— a melting point compilation (Tetko et al.; mined from patent text by program, amines drawn as free bases though some values may be those of a salt)
